Here are results for 24 molecules from patent US8569301B2, “6, 6-dioxo-6-thia-1, 4-diaza-naphthalenes as herbicides” (Syngenta Limited, priority 2009, dated 2013).

Holding throughout (type): in vivo
Settings in all cases: sprayed after 8 days cultivation, evaluated after 13 days, scores from 10 to 0 (10=total damage to plant; 0=no damage to plant)

The subject of assay [1] is SOLNI. Description: Example B1 herbicidal action post-emergence, SOLNI. The method, then: (§1) Seeds of a variety of test species were sown in standard soil in pots. After 8 days cultivation (post-emergence) under controlled conditions in a glasshouse (at 24/16° C., day/night; 14 hours light; 65% humidity), the plants were sprayed with an aqueous spray solution derived from the formulation of the technical active ingredient in acetone/water (50:50) solution containing 0.5% Tween 20 (polyoxyethelyene sorbitan monolaurate, CAS RN 9005-64-5). The test plants were then grown under controlled conditions in a glasshouse (at 24/16° C., day/night; 14 hours light; 65% humidity) and watered twice daily. After 13 days, the test was evaluated and the assessed scores, from 10 to 0, are tabulated in Table B1 (10=total damage to plant; 0=no damage to plant).

For assay [2], the system named is AMARE. In words: Example B1 herbicidal action post-emergence, AMARE. How it is done:
as §1

Assay [3] deals with SETFA. In words: Example B1 herbicidal action post-emergence, SETFA. How it is done: as §1
Assay [4] has as its system ECHCG. In words: Example B1 herbicidal action post-emergence, ECHCG. How it is done: as §1
The subject of assay [5] is IPOHE. Description: Example B1 herbicidal action post-emergence, IPOHE. The method, then: as §1

With `C#CCC1c2nccnc2C(O)=C(c2c(Cl)cccc2C(F)(F)F)S1(=O)=O` (racemic) [Compound E2], the “assessed score, application post-emergence, SOLNI” value (“assessed score … SOLNI” below) in assay [1] (Rate 1000 g/ha) was 8. The “assessed score, application post-emergence, AMARE” value (“assessed score … AMARE” below) in assay [2] (Rate 1000 g/ha) is 10. The “assessed score, application post-emergence, SETFA” value (“assessed score … SETFA” below) in assay [3] (Rate 1000 g/ha) is 8. Further, the “assessed score, application post-emergence, ECHCG” value (“assessed score … ECHCG” below) in assay [4] (Rate 1000 g/ha) was determined as 8. The “assessed score, application post-emergence, IPOHE” value (“assessed score … IPOHE” below) in assay [5] (Rate 1000 g/ha) was determined as 8.
For the molecule `CC1c2nccnc2C(O)=C(c2c(Cl)cccc2C(F)(F)F)S1(=O)=O` (racemic) [Compound E3], the “assessed score … SOLNI” value in assay [1] (Rate 1000 g/ha) amounted to 8. For the same molecule, the “assessed score … AMARE” value in assay [2] (Rate 1000 g/ha) worked out at 9. For the same molecule, the “assessed score … SETFA” value in assay [3] (Rate 1000 g/ha) is 8. The “assessed score … ECHCG” value in assay [4] (Rate 1000 g/ha) is 8. Besides, the “assessed score … IPOHE” value in assay [5] (Rate 1000 g/ha) was determined as 8.
As to `O=S1(=O)C(c2c(Cl)cccc2C(F)(F)F)=C(O)c2nccnc2C1CC(F)F` (racemic) [Compound E4], the “assessed score … SOLNI” value in assay [1] (Rate 1000 g/ha) was found to be 8. Moreover, the “assessed score … AMARE” value in assay [2] (Rate 1000 g/ha) turned out to be 9. Also, in assay [3] (Rate 1000 g/ha), the “assessed score … SETFA” value stood at 6. Also, the “assessed score … ECHCG” value in assay [4] (Rate 1000 g/ha) came out at 6. The “assessed score … IPOHE” value in assay [5] (Rate 1000 g/ha) came to 7.
Turning to `CCC1c2nccnc2C(O)=C(c2cc(Cl)ccc2C(F)(F)F)S1(=O)=O` (racemic) [Compound E6], the “assessed score … SOLNI” value in assay [1] (Rate 1000 g/ha) was found to be 8. In addition, the “assessed score … AMARE” value in assay [2] (Rate 1000 g/ha) was determined as 8. In addition, the “assessed score … SETFA” value in assay [3] (Rate 1000 g/ha) is listed as 3. Also, the “assessed score … ECHCG” value in assay [4] (Rate 1000 g/ha) worked out at 5. Besides, the “assessed score … IPOHE” value in assay [5] (Rate 1000 g/ha) is 7.
With `O=S1(=O)C(c2cc(Cl)ccc2C(F)(F)F)=C(O)c2nccnc2C1CC(F)F` (racemic) [Compound E7], in assay [1] (Rate 250 g/ha), the “assessed score … SOLNI” value is on record as 7. Also, the “assessed score … AMARE” value in assay [2] (Rate 250 g/ha) is recorded as 6. Also, the “assessed score … SETFA” value in assay [3] (Rate 250 g/ha) is given as 2. Further, in assay [4] (Rate 250 g/ha), the “assessed score … ECHCG” value is reported as 2. For the same molecule, the “assessed score … IPOHE” value in assay [5] (Rate 250 g/ha) is listed as 7.
Turning to `O=S1(=O)Cc2nccnc2C(O)=C1c1c(F)ccc(Cl)c1Cl` [Compound C1, 7-(2,3-dichloro-6-fluoro-phenyl)-6,6-dioxo-5,6-dihydro-6-λ-6-thia-1,4-diaza-naphthalen-8-ol], the “assessed score … SOLNI” value in assay [1] (Rate 1000 g/ha) is 8. For the same molecule, in assay [2] (Rate 1000 g/ha), the “assessed score … AMARE” value came out at 10. In assay [3] (Rate 1000 g/ha), the “assessed score … SETFA” value is on record as 8. Also, the “assessed score … ECHCG” value in assay [4] (Rate 1000 g/ha) worked out at 7. In assay [5] (Rate 1000 g/ha), the “assessed score … IPOHE” value stood at 8.
Consider `O=S1(=O)Cc2nccnc2C(O)=C1c1cc(C(F)(F)F)ccc1Cl` [Compound C2], for which the “assessed score … SOLNI” value in assay [1] (Rate 1000 g/ha) worked out at 0. Also, the “assessed score … AMARE” value in assay [2] (Rate 1000 g/ha) is 0. Moreover, the “assessed score … SETFA” value in assay [3] (Rate 1000 g/ha) stood at 0. Besides, the “assessed score … ECHCG” value in assay [4] (Rate 1000 g/ha) came out at 0. The “assessed score … IPOHE” value in assay [5] (Rate 1000 g/ha) is 0.
Consider `O=S1(=O)Cc2nccnc2C(O)=C1c1cc(Cl)cc(C(F)(F)F)c1` [Compound C3], for which the “assessed score … SOLNI” value in assay [1] (Rate 1000 g/ha) is reported as 0. Further, in assay [2] (Rate 1000 g/ha), the “assessed score … AMARE” value is listed as 0. Moreover, the “assessed score … SETFA” value in assay [3] (Rate 1000 g/ha) was found to be 0. Further, the “assessed score … ECHCG” value in assay [4] (Rate 1000 g/ha) was found to be 0. In addition, the “assessed score … IPOHE” value in assay [5] (Rate 1000 g/ha) turned out to be 0.
As to `Cc1cccc(F)c1C1=C(O)c2nccnc2CS1(=O)=O` [Compound C4], the “assessed score … SOLNI” value in assay [1] (Rate 1000 g/ha) is 4. The “assessed score … AMARE” value in assay [2] (Rate 1000 g/ha) is 7. In assay [3] (Rate 1000 g/ha), the “assessed score … SETFA” value worked out at 5. Further, the “assessed score … ECHCG” value in assay [4] (Rate 1000 g/ha) is listed as 3. In addition, the “assessed score … IPOHE” value in assay [5] (Rate 1000 g/ha) came to 2.
For `COc1ccc(Cl)c(C2=C(O)c3nccnc3CS2(=O)=O)c1F` [Compound C5] the same measures were 4, 3, 4, 1 and 3.
For `O=S1(=O)Cc2nccnc2C(O)=C1c1c(F)cccc1C(F)(F)F` [Compound C6] the same measures were 3, 4, 2, 1 and 0.
Consider `O=S1(=O)Cc2nccnc2C(O)=C1c1cc(Cl)ccc1C(F)(F)F` [Compound C7, 7-(5-chloro-2-trifluoromethyl-phenyl)-6,6-dioxo-5,6-dihydro-6-thia-1,4-diaza-naphthalen-8-ol], for which the “assessed score … SOLNI” value in assay [1] (Rate 1000 g/ha) is 8. The “assessed score … AMARE” value in assay [2] (Rate 1000 g/ha) is 8. Besides, the “assessed score … SETFA” value in assay [3] (Rate 1000 g/ha) was 8. Further, the “assessed score … ECHCG” value in assay [4] (Rate 1000 g/ha) came out at 6. The “assessed score … IPOHE” value in assay [5] (Rate 1000 g/ha) amounted to 7.
Regarding `O=S1(=O)Cc2nccnc2C(O)=C1c1ccc(F)cc1Cl` [Compound C8], in assay [1] (Rate 1000 g/ha), the “assessed score … SOLNI” value amounted to 7. The “assessed score … AMARE” value in assay [2] (Rate 1000 g/ha) is recorded as 5. Further, the “assessed score … SETFA” value in assay [3] (Rate 1000 g/ha) worked out at 5. For the same molecule, the “assessed score … ECHCG” value in assay [4] (Rate 1000 g/ha) amounted to 3. Further, the “assessed score … IPOHE” value in assay [5] (Rate 1000 g/ha) worked out at 1.
Turning to `O=S1(=O)Cc2nccnc2C(O)=C1c1ccccc1OC(F)F` [Compound C9], the “assessed score … SOLNI” value in assay [1] (Rate 1000 g/ha) is 4. Besides, the “assessed score … AMARE” value in assay [2] (Rate 1000 g/ha) was 6. For the same molecule, in assay [3] (Rate 1000 g/ha), the “assessed score … SETFA” value is given as 7. Moreover, in assay [4] (Rate 1000 g/ha), the “assessed score … ECHCG” value is reported as 3. For the same molecule, the “assessed score … IPOHE” value in assay [5] (Rate 1000 g/ha) is recorded as 1.
For `O=S1(=O)Cc2nccnc2C(O)=C1c1cccc(F)c1C(F)(F)F` [Compound C10], in that order: 8, 6, 6, 5 and 6.
For `O=S1(=O)Cc2nccnc2C(O)=C1c1ccccc1C(F)(F)F` [Compound C11] the same measures were 7, 7, 7, 5 and 5.
For `O=S1(=O)Cc2nccnc2C(O)=C1c1c(F)ccc(F)c1Cl` [Compound C12], in that order: 8, 8, 6, 3 and 6.
With `O=S1(=O)Cc2nccnc2C(O)=C1c1c(Cl)cccc1C(F)(F)F` [Compound C13], the “assessed score … SOLNI” value in assay [1] (Rate 1000 g/ha) amounted to 2. In addition, the “assessed score … AMARE” value in assay [2] (Rate 1000 g/ha) turned out to be 8. Further, in assay [3] (Rate 1000 g/ha), the “assessed score … SETFA” value is recorded as 8. For the same molecule, the “assessed score … ECHCG” value in assay [4] (Rate 1000 g/ha) is recorded as 8. Also, in assay [5] (Rate 1000 g/ha), the “assessed score … IPOHE” value is reported as 8.
Consider `O=S1(=O)Cc2nccnc2C(O)=C1c1ccccc1I` [Compound C14], for which the “assessed score … SOLNI” value in assay [1] (Rate 1000 g/ha) was determined as 7. The “assessed score … AMARE” value in assay [2] (Rate 1000 g/ha) is reported as 8. Also, in assay [3] (Rate 1000 g/ha), the “assessed score … SETFA” value is 7. Moreover, in assay [4] (Rate 1000 g/ha), the “assessed score … ECHCG” value is 7. Besides, in assay [5] (Rate 1000 g/ha), the “assessed score … IPOHE” value is 8.
For `O=S1(=O)Cc2nccnc2C(O)=C1c1cc(F)ccc1Cl` [Compound C15], the “assessed score … SOLNI” value in assay [1] (Rate 1000 g/ha) is on record as 8. The “assessed score … AMARE” value in assay [2] (Rate 1000 g/ha) amounted to 7. The “assessed score … SETFA” value in assay [3] (Rate 1000 g/ha) was 6. Moreover, the “assessed score … ECHCG” value in assay [4] (Rate 1000 g/ha) was 5. Also, the “assessed score … IPOHE” value in assay [5] (Rate 1000 g/ha) is listed as 3.
As for `O=S1(=O)Cc2nccnc2C(O)=C1c1cc(C(F)(F)F)ccc1C(F)(F)F` [Compound C16], in assay [1] (Rate 1000 g/ha), the “assessed score … SOLNI” value was 10. Further, in assay [2] (Rate 1000 g/ha), the “assessed score … AMARE” value stood at 9. Further, in assay [3] (Rate 1000 g/ha), the “assessed score … SETFA” value is on record as 3. Also, the “assessed score … ECHCG” value in assay [4] (Rate 1000 g/ha) is given as 5. Besides, the “assessed score … IPOHE” value in assay [5] (Rate 1000 g/ha) stood at 7.
On to `O=S1(=O)Cc2nccnc2C(O)=C1c1ccc(Cl)cc1C(F)(F)F` [Compound C17], for which the “assessed score … SOLNI” value in assay [1] (Rate 1000 g/ha) is recorded as 10. For the same molecule, the “assessed score … AMARE” value in assay [2] (Rate 1000 g/ha) was found to be 10. Besides, the “assessed score … SETFA” value in assay [3] (Rate 1000 g/ha) is recorded as 8. In assay [4] (Rate 1000 g/ha), the “assessed score … ECHCG” value was found to be 8. Further, in assay [5] (Rate 1000 g/ha), the “assessed score … IPOHE” value is reported as 7.
As to `O=S1(=O)Cc2nccnc2C(O)=C1c1c(Cl)ccc(Cl)c1Cl` [Compound C18], the “assessed score … SOLNI” value in assay [1] (Rate 1000 g/ha) stood at 8. Besides, the “assessed score … AMARE” value in assay [2] (Rate 1000 g/ha) came out at 7. Also, the “assessed score … SETFA” value in assay [3] (Rate 1000 g/ha) was 8. In addition, the “assessed score … ECHCG” value in assay [4] (Rate 1000 g/ha) turned out to be 8. Moreover, the “assessed score … IPOHE” value in assay [5] (Rate 1000 g/ha) is 8.
`O=S1(=O)Cc2nccnc2C(O)=C1c1c(Cl)cccc1Cl` [Compound C19]: in assay [1] (Rate 1000 g/ha), the “assessed score … SOLNI” value is given as 9. Also, in assay [2] (Rate 1000 g/ha), the “assessed score … AMARE” value is 7. Moreover, the “assessed score … SETFA” value in assay [3] (Rate 1000 g/ha) is on record as 8. Further, the “assessed score … ECHCG” value in assay [4] (Rate 1000 g/ha) is recorded as 7. Also, the “assessed score … IPOHE” value in assay [5] (Rate 1000 g/ha) was found to be 8.
